Our source for the mortality and pest or weed control values is US8802713B2, “3-alkoxy-1-phenylpyrazole derivatives and pesticides” (Kumiai Chemical Industry Co., Ltd., priority 2007, dated 2014).

Molecules are shown by their SMILES. Like-named read-outs stand apart in the source and are kept apart here.

One test concerns brown rice planthopper. Nature of the test: Insecticidal test on brown rice planthopper. It is filed as in vivo. The note with it: 144 h. Here is the method: A wettable powder prepared in accordance with Formulation Example 2 was diluted with water to a concentration of an active ingredient of 500 ppm. Rice sprouts were dipped in this solution and put in a plastic cup having a capacity of 60 mL. Ten third-instar larvae of brown rice planthopper were released in the cup, the cup was lidded and placed in a thermostatic chamber at 25° C. for 6 days, and the number of dead larvae were counted for calculation of the mortality by Equation 2. The test was carried out by one series system.

The subject of the next test is two-spotted spider mites. Nature of the test: Miticidal test on two-spotted spider mites (seedling dip). The class given is in vivo, Tetranvchus urticae. The note with it: Glycine max, 312 h; 500 ppm active ingredient, soybean seedlings with imago mites dipped, 25° C., 13 days; read-out: protective value. Here is the method: A wettable powder prepared in accordance with Formulation Example 2 was diluted with water to a concentration of an active ingredient of 500 ppm. Soybean seedlings which had been inoculated with imago two-spotted spider mites were dipped in the solution and dried in air. The treated soybean seedlings were placed in a thermostatic chamber at 25° C. for 13 days, and the number of live mites were assessed for calculation of the protective value by Equation 1. The test was carried out by one series system.

A further test concerns diamondback moth. As to the kind of experiment: Insecticidal test on diamondback moth. The class given is in vivo. The following applies: Plutella xylostella, 144 h. As to the method: A wettable powder prepared in accordance with Formulation Example 2 was diluted with water to a concentration of an active ingredient of 500 ppm. Cabbage leaves were dipped in this solution and dried in air and then put in a plastic cup having a capacity of 60 mL. 10 second-instar larvae of diamondback moth were released in the cup and the cup was lidded. Then, the cup was placed in a thermostatic chamber at 25° C. for 6 days, and dead moths were counted for calculation of the mortality by Equation 2. The test was carried out by one series system.

The next test relates to cotton aphid. Nature of the test: Insecticidal test on cotton aphid (seedling dip). The class given is in vivo. The following applies: Aphis gossypii, in Cucumis sativus, 72 h. As to the method:
A wettable powder prepared in accordance with Formulation Example 2 was diluted with water to a concentration of an active ingredient of 500 ppm. Cucumber seedlings which had been inoculated with larvae of cotton aphid were dipped in this solution and dried in air. The treated cucumber seedlings were placed in a thermostatic chamber at 25° C. for 3 days, and the live insects were counted for calculation of the mortality by Equation 2. The test was carried out by one series system.

For `Cc1cc(F)c(-n2nc(OCC(F)(F)C(F)(F)F)c(Cl)c2Cl)cc1SCC(F)(F)F` [1-111, 1-{2-fluoro-4-methyl-5-(2,2,2-trifluoroethylthio)phenyl}-4,5-dichloro-3-(2,2,3,3,3-pentafluoropropoxy)pyrazole], the mortality at 500 ppm in the test on brown rice planthopper was not below 90%. Moreover, the pest or weed control at 500 ppm with two-spotted spider mites is not below 90%.
`Cc1cc(F)c(-n2ccc(Oc3ccc(C(F)(F)F)cc3)n2)cc1[S+]([O-])CC(F)(F)F` (stereo not shown) [1-1586, 1-{2-fluoro-4-methyl-5-(2,2,2-trifluoroethylsulfinyl)phenyl}-3-{4-(trifluoromethyl)phenoxy}pyrazole]: in the test on brown rice planthopper, the mortality at 500 ppm is not below 90%. For the same compound, the pest or weed control at 500 ppm in the test on two-spotted spider mites is not below 90%.
For the compound `Cc1cc(F)c(-n2nc(OC(F)(F)C(F)C(F)(F)F)c(Cl)c2N)cc1SCC(F)(F)F` (stereo not shown) [1-263, 5-amino-4-chloro-1-{2-fluoro-4-methyl-5-(2,2,2-trifluoroethylthio)phenyl}-3-(1,1,2,3,3,3-hexafluoropropoxy)pyrazole], the mortality at 500 ppm in the test with brown rice planthopper and in the test on diamondback moth (in Brassica oleracea) was not below 90% each time. In the test on two-spotted spider mites, the pest or weed control at 500 ppm is not below 90%.
Take `Cc1cc(F)c(-n2nc(OC(F)(F)C(F)OC(F)(F)F)c(Cl)c2Cl)cc1SCC(F)(F)F` (stereo not shown) [1-291, 4,5-dichloro-1-{2-fluoro-4-methyl-5-(2,2,2-trifluoroethylthio)phenyl}-3-{1,1,2-trifluoro-2-(trifluoromethoxy)ethoxy}pyrazole]: the mortality at 500 ppm in the test with brown rice planthopper and in the test on diamondback moth (in Brassica oleracea) was not below 90% throughout. Moreover, in the test on two-spotted spider mites, the pest or weed control at 500 ppm is not below 90%.
As for `Cc1cc(F)c(-n2nc(OC(F)(F)C(F)C(F)(F)F)c(Cl)c2N)cc1[S+]([O-])CC(F)(F)F` (stereo not shown) [1-264, 5-amino-4-chloro 1-{2-fluoro-4-methyl-5-(2,2,2-trifluoroethylsulfinyl)phenyl}-3-(1,1,2,3,3,3-hexafluoropropoxy)pyrazole], the mortality at 500 ppm in the test with brown rice planthopper and with diamondback moth (in Brassica oleracea) was not below 90% each time. Further, the pest or weed control at 500 ppm in the test on two-spotted spider mites is not below 90%.
As for `Cc1cc(F)c(-n2ccc(C(F)(F)F)n2)cc1SCC(F)(F)F` [V-613, reference compound], in the test with cotton aphid, the mortality at 500 ppm is 0%.
For `Cc1cc(F)c(-n2nc(OCCC(F)(F)F)cc2C)cc1[S+]([O-])CC(F)(F)F` (stereo not shown) [1-250, 1-{2-fluoro-4-methyl-5-(2,2,2-trifluoroethylsulfinyl)phenyl}-5-methyl-3-(3,3,3-trifluoropropoxy)pyrazole], the mortality at 500 ppm in the test on brown rice planthopper and with cotton aphid was not below 90% in each case. Also, the pest or weed control at 500 ppm in the test on two-spotted spider mites was not below 90%.
Consider `Cc1cc(F)c(-n2nc(OCC(F)(F)C(F)(F)F)c(Cl)c2N)cc1SCC(F)(F)F` [1-43, 5-amino-4-chloro-1-{2-fluoro-4-methyl-5-(2,2,2-trifluoroethylthio)phenyl}-3-(2,2,3,3,3-pentafluoropropoxy)pyrazole], for which the mortality at 500 ppm in the test with brown rice planthopper and with diamondback moth (in Brassica oleracea) was not below 90% in each case. For the same compound, the pest or weed control at 500 ppm with two-spotted spider mites is not below 90%.
For the compound `Cc1cc(F)c(-n2nc(OCC(F)(F)C(F)(F)F)cc2C=O)cc1SCC(F)(F)F` [1-199, 1-{2-fluoro-4-methyl-5-(2,2,2-trifluoroethylthio)phenyl}-5-formyl-3-(2,2,3,3,3-pentafluoropropoxy)pyrazole], in the test with diamondback moth (in Brassica oleracea), the mortality at 500 ppm is not below 90%. Besides, the pest or weed control at 500 ppm in the test on two-spotted spider mites is not below 90%.
As for `CNc1c(Cl)c(OC(F)(F)C(F)C(F)(F)F)nn1-c1cc([S+]([O-])CC(F)(F)F)c(C)cc1F` (stereo not shown) [1-262, 4-chloro-1-{2-fluoro-4-methyl-5-(2,2,2-trifluoroethylsulfinyl)phenyl}-3-(1,1,2,3,3,3-hexafluoropropoxy)-5-methylaminopyrazole], the mortality at 500 ppm in the test with brown rice planthopper and in the test with diamondback moth (in Brassica oleracea) was not below 90% throughout. Further, the pest or weed control at 500 ppm with two-spotted spider mites is not below 90%.
Turning to `Cc1cc(F)c(-n2nc(OC(F)(F)C(F)OC(F)(F)F)cc2CF)cc1[S+]([O-])CC(F)(F)F` (stereo not shown) [1-1580, 1-{2-fluoro-4-methyl-5-(2,2,2-trifluoroethylsulfinyl)phenyl}-5-fluoromethyl-3-{1,1,2-trifluoro-2-(trifluoromethoxy)ethoxy}pyrazole], the mortality at 500 ppm with brown rice planthopper and in the test with cotton aphid was not below 90% in each case. Besides, in the test with two-spotted spider mites, the pest or weed control at 500 ppm is not below 90%.
In turn, `Cc1cc(F)c(-n2nc(OCC(F)(F)C(F)(F)F)cc2CO)cc1SCC(F)(F)F` [1-201, 1-{2-fluoro-4-methyl-5-(2,2,2-trifluoroethylthio)phenyl}-5-hydroxymethyl-3-(2,2,3,3,3-pentafluoropropoxy)pyrazole] displayed a mortality at 500 ppm in the test with brown rice planthopper not below 90%. The pest or weed control at 500 ppm with two-spotted spider mites is not below 90%.
Regarding `Cc1cc(F)c(-n2nc(OC(F)(F)C(F)OC(F)(F)F)cc2C(F)F)cc1[S+]([O-])CC(F)(F)F` (stereo not shown) [1-1532, 5-difluoromethyl-1-{2-fluoro-4-methyl-5-(2,2,2-trifluoroethylsulfinyl)phenyl}-3-{1,1,2-trifluoro-2-(trifluoromethoxy)ethoxy}pyrazole], the mortality at 500 ppm in the test on brown rice planthopper is not below 90%. The pest or weed control at 500 ppm with two-spotted spider mites was not below 90%.
`Cc1cc(F)c(-n2cc(Cl)c(OC(F)(F)C(F)OC(F)(F)F)n2)cc1[S+]([O-])CC(F)(F)F` (stereo not shown) [1-290, 4-chloro-1-{2-fluoro-4-methyl-5-(2,2,2-trifluoroethylsulfinyl)phenyl}-3-{1,1,2-trifluoro-2-(trifluoromethoxy)ethoxy}pyrazole]: the mortality at 500 ppm in the test with brown rice planthopper is not below 90%. Further, the pest or weed control at 500 ppm in the test with two-spotted spider mites was not below 90%.
Take `Cc1cc(F)c(-n2nc(OC(F)(F)C(F)OC(F)(F)F)cc2C#N)cc1[S+]([O-])CC(F)(F)F` (stereo not shown) [1-669, 5-cyano-1-{2-fluoro-4-methyl-5-(2,2,2-trifluoroethylsulfinyl)phenyl}-3-{1,1,2-trifluoro-2-(trifluoromethoxy)ethoxy}pyrazole]: the mortality at 500 ppm with brown rice planthopper was not below 90%. The pest or weed control at 500 ppm in the test on two-spotted spider mites was not below 90%.
In turn, `Cc1cc(F)c(-n2nc(OCCC(F)(F)F)cc2C)cc1SCC(F)(F)F` [1-249, 1-{2-fluoro-4-methyl-5-(2,2,2-trifluoroethylthio)phenyl}-5-methyl-3-(3,3,3-trifluoropropoxy)pyrazole] displayed a mortality at 500 ppm in the test with brown rice planthopper not below 90%. Further, in the test on two-spotted spider mites, the pest or weed control at 500 ppm is not below 90%.
For the compound `Cc1cc(F)c(-n2cc(C#N)c(OC(F)(F)C(F)OC(F)(F)F)n2)cc1[S+]([O-])CC(F)(F)F` (stereo not shown) [1-1588, 4-cyano-1-{2-fluoro-4-methyl-5-(2,2,2-trifluoroethylsulfinyl)phenyl}-3-{1,1,2-trifluoro-2-(trifluoromethoxy)ethoxy}pyrazole], the pest or weed control at 500 ppm with two-spotted spider mites is not below 90%.
The compound `Cc1cc(F)c(-n2cc(Cl)c(OC(F)(F)C(F)OC(F)(F)F)n2)cc1SCC(F)(F)F` (stereo not shown) [1-289, 4-chloro-1-{2-fluoro-4-methyl-5-(2,2,2-trifluoroethylthio)phenyl}-3-{1,1,2-trifluoro-2-(trifluoromethoxy)ethoxy}pyrazole] displayed a mortality at 500 ppm in the test on brown rice planthopper not below 90%. Moreover, in the test with two-spotted spider mites, the pest or weed control at 500 ppm is not below 90%.
With `Cc1cc(F)c(-n2nc(OC(F)(F)C(F)OC(F)(F)F)c(Cl)c2Cl)cc1[S+]([O-])CC(F)(F)F` (stereo not shown) [1-292, 4,5-dichloro-1-{2-fluoro-4-methyl-5-(2,2,2-trifluoroethylsulfinyl)phenyl}-3-{1,1,2-trifluoro-2-(trifluoromethoxy)ethoxy}pyrazole], the mortality at 500 ppm with brown rice planthopper and with diamondback moth (in Brassica oleracea) was not below 90% in each case. The pest or weed control at 500 ppm in the test on two-spotted spider mites was not below 90%.
Turning to `Cc1cc(F)c(-n2nc(OCC(F)(F)C(F)(F)F)cc2C(=O)O)cc1SCC(F)(F)F` [1-145, 1-{2-fluoro-4-methyl-5-(2,2,2-trifluoroethylthio)phenyl}-3-(2,2,3,3,3-pentafluoropropoxy)pyrazole-5-carboxylic acid], in the test on brown rice planthopper, the mortality at 500 ppm is not below 90%.
For the compound `Cc1cc(F)c(-n2nc(OCC(F)(F)C(F)(F)F)c(F)c2N)cc1SCC(F)(F)F` [1-41, 5-amino-1-{2-fluoro-4-methyl-5-(2,2,2-trifluoroethylthio)phenyl}-4-fluoro-3-(2,2,3,3,3-pentafluoropropoxy)pyrazole], the mortality at 500 ppm in the test on brown rice planthopper is not below 90%; in the test with diamondback moth (500 ppm active ingredient, cabbage leaves dipped, second-instar larvae, 25° C., 6 days, read-out: mortality) it was not below 90%.
Consider `Cc1cc(F)c(-n2nc(OCC(F)(F)C(F)(F)F)cc2C#N)cc1[S+]([O-])CC(F)(F)F` (stereo not shown) [1-134, 5-cyano-1-{2-fluoro-4-methyl-5-(2,2,2-trifluoroethylsulfinyl)phenyl}-3-(2,2,3,3,3-pentafluoropropoxy)pyrazole], for which the mortality at 500 ppm with brown rice planthopper is not below 90%. Besides, in the test with two-spotted spider mites, the pest or weed control at 500 ppm was not below 90%.
With `CNc1c(Cl)c(OC(F)(F)C(F)C(F)(F)F)nn1-c1cc(SCC(F)(F)F)c(C)cc1F` (stereo not shown) [1-261, 4-chloro-1-{2-fluoro-4-methyl-5-(2,2,2-trifluoroethylthio)phenyl}-3-(1,1,2,3,3,3-hexafluoropropoxy)-5-methylaminopyrazole], the mortality at 500 ppm with brown rice planthopper and with diamondback moth (in Brassica oleracea) was not below 90% in each case. The pest or weed control at 500 ppm with two-spotted spider mites is not below 90%.

What is called mortality is the percentage killed.
